# According to ChEMBL document CHEMBL3352695, “Synthesis and biological evaluation of novel isoxazoles and triazoles linked 6-hydroxycoumarin as potent cytotoxic agents” (Bioorg Med Chem Lett, 2014):
# Assays:
# Format in all cases: functional, cell-based
# A549 = experiment: Cytotoxicity against human A549 cells after 48 hrs by MTT assay; conditions: A549, 48 h
# [1] = Cytotoxicity against human PC3 cells after 48 hrs by MTT assay; conditions: PC-3, 48 h
# [2] = Cytotoxicity against human HL60 cells after 48 hrs by MTT assay; conditions: HL-60, 48 h
# COLO 205 = experiment: Cytotoxicity against human COLO205 cells after 48 hrs by MTT assay; conditions: COLO 205, 48 h
# [3] = Cytotoxicity against human HCT116 cells after 48 hrs by MTT assay; conditions: HCT-116, 48 h
Structure (SMILES),IC50 (A549) [µM],IC50 [1] [µM],IC50 [2] [µM],IC50 (COLO 205) [µM],IC50 [3] [µM]
O=c1ccc2cc(OCc3cn(-c4ccccc4Cl)nn3)ccc2o1,17.1,,,,
N#Cc1ccccc1-c1cc(COc2ccc3oc(=O)ccc3c2)on1,55.8,13.6,,,
N#Cc1ccccc1-n1cc(COc2ccc3oc(=O)ccc3c2)nn1,12.6,,52.1,,
O=c1ccc2cc(OCc3cc(-c4ccc(Cl)cc4)no3)ccc2o1,,,44.6,44.5,55.8
O=c1ccc2cc(OCc3cn(-c4ccc(Cl)c(Cl)c4)nn3)ccc2o1,,,47.8,,57.3
O=c1ccc2cc(OCc3cn(-c4ccccc4[N+](=O)[O-])nn3)ccc2o1,10.2,,44.6,,55.8
Cn1c(=O)n(-c2ccc(C(C)(C)C#N)cc2)c2c3cc(-c4cnc5ccccc5c4)ccc3ncc21 [DACTOLISIB],6.5,12.3,12.4,0.085,0.044
O=c1ccc2cc(OCc3cc(-c4ccc5ccccc5c4)no3)ccc2o1,,,55.7,48.7,55.9
O=c1ccc2cc(OCc3cn(-c4ccccc4)nn3)ccc2o1,,,41.6,48.8,51.5
O=c1ccc2cc(OCc3cc(-c4cccc([N+](=O)[O-])c4)no3)ccc2o1,36.2,,44.4,48.3,48.2
O=c1ccc2cc(OCc3cc(-c4cccc(Cl)c4)no3)ccc2o1,,,50.6,32.5,42.1
COc1ccccc1-n1cc(COc2ccc3oc(=O)ccc3c2)nn1,18.7,,55.2,,
O=c1ccc2cc(OCc3cn(-c4ccc([N+](=O)[O-])cc4)nn3)ccc2o1,33.6,,46,48.7,44.3
COc1ccc(-n2cc(COc3ccc4oc(=O)ccc4c3)nn2)cc1,46.8,,46.4,32.8,37.8
COc1ccccc1-c1cc(COc2ccc3oc(=O)ccc3c2)on1,,22.4,,,
N#CCc1ccc(-n2cc(COc3ccc4oc(=O)ccc4c3)nn2)cc1,29.2,,,,
O=c1ccc2cc(O)ccc2o1 [6-HYDROXYCOUMARIN],,,35,38.7,46.2
O=c1ccc2cc(OCc3cn(-c4cccc([N+](=O)[O-])c4)nn3)ccc2o1,,49.3,20.5,36.6,26.9
O=c1ccc2cc(OCc3cc(-c4cccc5ccccc45)no3)ccc2o1,,,41.6,47.2,51.5
O=c1ccc2cc(OCc3cc(-c4ccccc4Cl)no3)ccc2o1,,18.2,,,
O=c1ccc2cc(OCc3cc(-c4ccccc4[N+](=O)[O-])no3)ccc2o1,,8.2,,,
CC(=O)Nc1ccc(-n2cc(COc3ccc4oc(=O)ccc4c3)nn2)cc1,,,40.4,,
O=c1ccc2cc(OCc3cn(-c4cccc(CO)c4)nn3)ccc2o1,35.1,,,,
C#CCOc1ccc2oc(=O)ccc2c1,24,,,,
O=c1ccc2cc(OCc3cc(-c4ccc([N+](=O)[O-])cc4)no3)ccc2o1,,,55.8,47.8,42.2
O=c1ccc2cc(OCc3cc(-c4ccccc4)no3)ccc2o1,,53.2,43.3,,
